Data from patent US20230190844A1, “COMPOSITION AND METHOD FOR TREATING CANCER WITH CANNABINOIDS” (CANNABICS PHARMACEUTICALS INC., priority 2020, published 2023).

Tests used:
[1] = tested on: CT26 cells; assay: Cell viability at varying CBGA:CBDV ratios, CT26; settings: Mus musculus, CT26, read-out: % Cells Viability
Procedure: (§4) Human colon cell lines (SC-CO1, RKO, and HCT116) and a murine cell line (CT26) were incubated with varying molar ratios between CBGA and CBDV of 1:3.5 to 8.5:1. Cells' viability and corresponding synergy rankings were determined.

[2] = tested on: A549 lung cancer cells; assay: CellTiter-Glo (CTG) cell viability, A549; type: cell-based; settings: CBDV 23.5 μM, CBGA 25.6 μM, CBDVA 25.6 μM, THC-d8 17.5 μM; 48 hours; FIGS. 2A-2B
Procedure: The lung cancer cell line A549 was exposed to each of CBDV (at a concentration of 23.5 μM) and CBGA (at a concentration of 25.6 μM) alone, and a combination thereof at 37° C. for 48 hours. The viability of the tested cells was examined. The following Table 6 illustrates the obtained results (shown also graphically in FIGS. 2A-2B).

[3] = tested on: HCT116 cells; assay: CellTiter-Glo (CTG) cell viability, HCT-116
Procedure: (§1) The colon cancer cell lines RKO, and HCT116 were exposed to various cannabinoid combinations, at 37° C. for 48 h. The viability of the tested cells was examined. Further, synergism was evaluated using the Bliss equation.
(§2) CBDV and CBGA were tested at concentrations of 46.9 μM and 51.2 μM, respectively (shown as X2 in FIGS. 4A-4B). The effect of contacting each cannabinoid on the cells at half the concentration (i.e., 23.4 μM and 25.6 μM for CBDV and CBGA, respectively) was further tested (shown as X1 in FIGS. 4A-4B). Mixtures of CBDV and CBGA each at a X1 concentration were further prepared (“low concentration solutions”). The effect of the low concentration solution on the viability of the cancer cells was tested. The testing of the effect of each solution on the cancer cells was determined by incubating the cells with each cannabinoid solution as well as a standard (control) comprising DMSO only at 37° C. for 48 h and cell viability was measured by CTG viability assay using a Varioskan™ LUX multimode microplate reader.
(§3) FIGS. 7A-7B illustrate the human colon cell lines (HCT116 and RKO) that were incubated with CBGA at a concentration of 35 μM, CBDV at a concentration of 25 μM, Capecitabine at a concentration of 250 μM, and a combination thereof.

[4] = tested on: HT-29 colon cancer cells; assay: CellTiter-Glo (CTG) cell viability, HT-29; type: cell-based, human; settings: CBDV 23.5 μM, CBGA 25.6 μM, THC-d8 17.5 μM; 48 hours; FIGS. 1A-1B
Procedure: The colon cancer cell line HT-29 was exposed to each of CBDV (at a concentration of 23.5 μM) and CBGA (at a concentration of 25.6 μM) alone, and a combination thereof and to each of CBGA (at a concentration of 25.6 μM) and THC-d8 (at a concentration of 17.5 μM) alone, and a combination thereof at 37° C. for 48 hours. The viability of the tested cells was examined. The following Tables 4 and 5 illustrate the obtained results (shown also graphically at FIGS. 1A and 1B).

[5] = tested on: RKO cells; assay: CellTiter-Glo (CTG) cell viability, RKO
Procedure: as §1, §2, §3

[6] = tested on: SK-CO1 cells; assay: Cell viability at varying CBGA:CBDV ratios, SK-CO1; settings: Homo sapiens, SK-CO-1, read-out: % Cells Viability
Procedure: as §4

[7] = tested on: MCF-7 breast cancer cells; assay: CellTiter-Glo (CTG) cell viability, MCF-7; type: cell-based; settings: CBDV 23.5 μM, CBGA 20 μM, CBDVA 17.5 μM, THC-d8 17.5 μM; 48 hours; FIGS. 3A-3B
Procedure: The breast cancer cell line MCF-7 was exposed to each of CBDV (at a concentration of 23.5 μM) and CBGA (at a concentration of 20 μM) alone, and to a combination thereof at 37° C. for 48 hours. The viability of the tested cells was examined. The following Table 8 illustrates the obtained results (shown also graphically in FIGS. 3A-3B).

[8] = tested on: cells of human colon cancer biopsy; assay: Cell viability of human colon cancer biopsies; type: cell-based; settings: CBDV 23.5 μM, CBG 20 μM, alone or combined
Procedure: The anti-tumor effect of combinations of cannabinoids CBCA, CBDV, CBDVA, THCV and CBGA on human colon cancer biopsies was tested. […] The obtained cell viability inhibition produced synergistic effects.
Table 18 illustrates (shown also graphically at FIG. 5A) the synergistic anti-tumor effect of a combination of the cannabinoids THCV (at a concentration of 24 μM) and CBCA (at a concentration of 14.5 μM) on colon cancer biopsies.
FIG. 6 illustrates graphically the combination of CBGA and CBDV on colon cancer biopsies taken from a patient. The concentration of each component was: CBGA (X2-51.2 μM), CBGA (X1-25.6 μM), CBDV (X2-47 μM), […].

[9] = Homo sapiens, HCT-116, read-out: % Cells Viability
[10] = Homo sapiens, RKO, read-out: % Cells Viability

SMILES	viability at 10 µM [1]	viability at 15 µM [1]	viability at 25 µM [1]	viability at 30 µM [1]	viability at 35 µM [1]	growth inhibition / anti-cancer effect in words [2]	viability at 10 µM [3, 9]	viability at 15 µM [3, 9]	viability at 25 µM [3, 9]	viability at 30 µM [3, 9]	viability at 35 µM [3, 9]	growth inhibition / anti-cancer effect in words [4]	viability at 10 µM [5, 10]	viability at 15 µM [5, 10]	viability at 25 µM [5, 10]	viability at 30 µM [5, 10]	viability at 35 µM [5, 10]	viability at 10 µM [6]	viability at 15 µM [6]	viability at 25 µM [6]	further results
C=C(C)[C@H]1CCC(C)=C[C@@H]1c1c(O)cc(CCC)cc1O [CBDV, 2-((1S,6S)-3-methyl-6-(prop-1-en-2-yl)cyclohex-2-enyl)-5-propylbenzene-1,3-diol]	109%	113%	108%	99%	90%	slight growth inhibition effect	109%	101%	84%	71%	64%	slight growth inhibition effect	108%	88%	62%	53%	48%	103%	99%	99%	viability at 5 µM [1]: 108%; viability at 23.4 µM ([3]; Homo sapiens, HCT-116, 48 h): 94%; viability at 46.9 µM ([3]; Homo sapiens, HCT-116, 48 h): 64%; viability at 5 µM [3, 9]: 113%; viability at 23.4 µM ([5]; Homo sapiens, RKO, 48 h): 92%; viability at 46.9 µM ([5]; Homo sapiens, RKO, 48 h): 38%; viability at 5 µM [5, 10]: 112%; viability at 5 µM [6]: 104%; viability at 30 µM [6]: 97%; viability at 35 µM [6]: 96%; growth inhibition / anti-cancer effect in words [7]: slight growth inhibition effect
CCCCCc1cc(O)c(C/C=C(\C)CCC=C(C)C)c(O)c1C(=O)O [CBGA, 3-[(2E)-3,7-dimethylocta-2,6-dienyl]-2,4-dihydroxy-6-pentylbenzoic acid]	102%	102%	46%	22%	21%	slight growth inhibition effect	115%	112%	104%	97%	90%	slight growth inhibition effect	119%	119%	94%	75%	59%	108%	110%	101%	viability at 42.5 µM [1]: 11%; viability at 25.6 µM ([3]; Homo sapiens, HCT-116, 48 h): 105%; viability at 51.2 µM ([3]; Homo sapiens, HCT-116, 48 h): 84%; viability at 42.5 µM [3, 9]: 72%; viability at 25.6 µM ([5]; Homo sapiens, RKO, 48 h): 103%; viability at 51.2 µM ([5]; Homo sapiens, RKO, 48 h): 53%; viability at 42.5 µM [5, 10]: 41%; viability at 30 µM [6]: 91%; viability at 35 µM [6]: 76%; viability at 42.5 µM [6]: 52%; growth inhibition / anti-cancer effect in words [7]: slight growth inhibition effect
CCCCCc1cc(O)c(C/C=C(\C)CCC=C(C)C)c(O)c1 [CBG]																					Viability [8]: 84
CCCCCOC(=O)Nc1nc(=O)n([C@@H]2O[C@H](C)[C@@H](O)[C@H]2O)cc1F [Capecitabine, reference compound]																					anti-cancer / toxicity effect on the cells in words ([3]; FIG. 7A, CBGA 35 μM, CBDV 25 μM, Capecitabine 250 μM): no toxicity effect; anti-cancer / toxicity effect on the cells in words ([5]; FIG. 7B, CBGA 35 μM, CBDV 25 μM, Capecitabine 250 μM): no toxicity effect
